Source: patent US20170071976A1, “PHARMACEUTICAL SOLUTION HAVING ANTI-TUMOR EFFECT-ENHANCING AND TOXICITY-REDUCING EFFECT, AND PHARMACEUTICAL COMPOSITION COMPRISING SAME” (priority 2014, published 2017)
Like-named read-outs stand apart in the source and are kept apart here. Marks after values point to notes of the source that are not given here.

Key:
[1] = system: xenograft tumors from human colon cancer HCT-116 cells; experiment: HCT-116 xenograft in nude mice, intravenous deuterium oxide in combination with 5-fluorouracil; format: in vivo, BALB/c nude mice
Procedure: Ltd. Cell lines: human colon cancer cells HCT-116 were provided by NANJING […] BIOTECH. CO., LTD. […] Bone marrow nucleated cells were isolated by a routine method, DNA was extracted from the cells, the OD value was measured in a UV-260 spectrometer as a representative of the DNA content, and inhibition of DNA synthesis by the test samples was observed. The test used 7 groups in total, with 8 animals per group. […] Tumor volume (TV) was calculated by the following equation: […] From the measurements, relative tumor volume (RTV) was calculated by the following equation: RTV=Vt/V0 Relative tumor growth ratio T/C (%) was calculated by the following equation: Criteria of efficacy evaluation: […] T/C %≦40% and statistically P<0.05, efficacious. Inhibition of tumor growth (%) was calculated by the following equation: Criteria of efficacy evaluation: […] The mean value was expressed in X±SD. Inter-group analysis was statistically performed with t test. The results were statistically analyzed using SPSS (Statistical Package for the Social Science) 17.0.

[2] = system: xenograft tumors from human ovarian cancer SKOV3 cells; experiment: SKOV3 xenograft in nude mice, intravenous deuterium oxide in combination with paclitaxel; format: in vivo, BALB/c nude mice; settings: Paclitaxel 8 mg/kg × 11, tail vein
Description: 3. […] 4. Statistics: the same as Example 21.

[3] = system: xenograft tumors from human breast cancer MCF-7 cells; experiment: MCF-7 xenograft in nude mice, intravenous deuterium oxide in combination with gemcitabine; format: in vivo, BALB/c nude mice; settings: Paclitaxel 8 mg/kg × 11, tail vein
Procedure: Ltd. Cell lines: human breast cancer MCF-7 cells were provided by NANJING […] BIOTECH. CO., LTD. […] Bone marrow nucleated cells were isolated by a routine method, DNA was extracted from the cells, the OD value was measured in a UV-260 spectrometer as a representative of the DNA content, and inhibition of DNA synthesis by the test samples was observed. The test used 7 groups in total, with 8 animals per group. […] Statistics: the same as Example 21.

[4] = system: xenograft tumors from human lung cancer A549 cells; experiment: A549 xenograft in nude mice, intravenous deuterium oxide in combination with gemcitabine; settings: Paclitaxel 8 mg/kg × 11, tail vein; for Tumor weight: control 2.92 ± 0.27; for Inhibition (%): tumor weight
Procedure: (§1) Animal: 6 to 7 week-aged female BALB/c nude mice, each weighing 18 to 20 g, provided by Shanghai SLAC Laboratory Animal Co. Ltd.
Test drugs: gemcitabine (GEM) and the sodium chloride deuterium oxide solution prepared in Example 1.
(§2) Tumor cells were resuscitated and inoculated, and sterile sodium chloride physiological solution was added thereto to make a cell suspension which was subcutaneously inoculated into the upper right axillary fossa of animals. 5×10^6 tumor cells were inoculated into each animal.
The diameter of xenograft tumors in the nude mice was measured with a vernier caliper, and 10 days after inoculation, when tumors grew to 100 to 110 cm^3, the animals were randomized with 8 mice per group. Meanwhile drugs were administered by injection into tail vein, once every three days, for 21 successive days. By measuring the tumor diameter, the anti-tumor efficacy of test samples was dynamically observed. Meanwhile the body weight of animals was also recorded to observe the toxicity of the test samples. 21 days after administration, the nude mice were sacrificed, and tumors were harvested by surgery, weighed and photographed.
6) Test group 2: gemcitabine (10 mg/kg) diluted in the sodium chloride deuterium oxide solution (10 ml/kg). 7) Test group 3: gemcitabine (10 ml/kg) diluted in the sodium chloride deuterium oxide solution (20 ml/kg).

[5] = system: liver cancer H22 ascites tumor; experiment: Liver cancer H22 ascites tumor mice, intraperitoneal retention lavage with deuterium oxide and cisplatin (room temperature or 42±1° C.); format: in vivo, Kunming mice; settings: cisplatin 0.6 mg/kg + Ringer's solution
Procedure: Animal: 4 to 5 week-aged male Kunming mice, provided by Shanghai SIPPR-BK Laboratory Animal Co. Ltd. Cell lines: […] CO., LTD. […] Test drugs: cisplatin, and the Ringer's deuterium oxide solution as prepared in Example 6. Grouping and dosing: the mouse model was established 7 to 8 days after inoculation, and the mice were randomized with 18 animals/group. Cisplatin were dissolved in a 42±1° C. Ringer's deuterium oxide solution, and used to lavage the peritoneal cavity of the tumor-bearing mice. 1). Blank control group (normal Ringer's solution, 10 ml/kg, room temperature); 2). Normal chemo group (cisplatin 0.6 mg/kg+normal Ringer's solution, 10 ml/kg, room temperature); 3). […] Room temperature high-dose deuterium oxide+cisplatin group (Ringer's deuterium oxide solution, 40 ml/kg+cisplatin 0.6 mg/kg); 6). Hyperthermic low-dose deuterium oxide+cisplatin group (42±1° C. […] Hyperthermic mid-dose deuterium oxide+cisplatin group (42±1° C. […] Hyperthermic high-dose deuterium oxide+cisplatin group (42±1° C. Ringer's deuterium oxide solution, 40 ml/kg+cisplatin 0.6 mg/kg); […] The lavage was performed once another day for 5 successive times. […] 4. […] Statistics: the same as Example 18.

[6] = system: xenograft tumors from human bladder cancer 5637 cells; settings: Thiotepa 0.2 mg/kg × 11, tail vein; for Inhibition (%): tumor weight
Description: Inhibition of growth of xenograft tumors from human bladder cancer 5637 cells in nude mice by intravenous injection of deuterium oxide in combination with thiotepa
as §1
Cell lines: human bladder cancer 5637 cells were provided by NANJING KEYGEN BIOTECH. CO., LTD.
Test drugs: thiotepa and the sodium chloride deuterium oxide solution, prepared in Example 1.
as §2
The diameter of xenograft tumors in the nude mice was measured with a vernier caliper, and 10 days after inoculation, when tumors grew to 100 to 110 cm^3, the animals were randomized. Meanwhile drugs were administered by injection into tail vein, once every three days, for 21 successive days. The body weight of animals was also recorded to observe the toxicity of the test samples. 21 days after administration, the nude mice were sacrificed, and tumors were harvested by surgery, and weighed.
The test used 5 groups in total, with 5 animals per group.
1) Control group: sodium chloride physiological solution, 10 ml/kg; 2) Thiotepa positive control group: thiotepa (0.2 mg/kg) diluted in sodium chloride physiological solution; 3) Test group 1: thiotepa (0.2 mg/kg) diluted in the sodium chloride deuterium oxide solution (1 ml/kg); 4) Test group 2: thiotepa (0.2 mg/kg) diluted in the sodium chloride deuterium oxide solution (10 ml/kg); 5) Test group 3: thiotepa (0.2 mg/kg) diluted in the sodium chloride deuterium oxide solution (25 ml/kg).

[7] = system: sarcoma S180 (ascites type); experiment: Sarcoma S180 (ascites type) mice, 42±1° C. intraperitoneal retention lavage with deuterium oxide, oxaliplatin and mitomycin; format: in vivo, Kunming mice; settings: oxaliplatin 0.8 mg/kg + glucose injection 5 ml/kg
Procedure: Inhibition of sarcoma S180 (ascites type) in tumor-bearing mice by 42±1° C. hyperthermic intraperitoneal retention lavage using deuterium oxide in combination with oxaliplatin and using deuterium oxide in combination with oxaliplatin and mitomycin.
Cell lines: sarcoma S180 (ascites type) cell line was provided by NANJING KEYGEN BIOTECH. CO., LTD.
Modeling: 0.2 ml suspension of sarcoma S180 cells containing 1×10^7 cells/ml was inoculated into the peritoneal cavity of mice.
Test drugs: oxaliplatin, mitomycin, and the glucose deuterium oxide solution as prepared in Example 2.
Grouping and dosing: the mouse model was established 7 to 8 days after inoculation, and the mice were randomized with 12 animals/group.
Oxaliplatin and mitomycin were dissolved in a 42±1° C. glucose deuterium oxide solution, and used to lavage the peritoneal cavity of the tumor-bearing mice.
Blank control group (5% glucose injection, 5 ml/kg); 2). Chemo group (oxaliplatin 0.8 mg/kg+5% glucose injection, 5 ml/kg); 3). Low-dose deuterium oxide+oxaliplatin group (5% glucose deuterium oxide solution, 5 ml/kg+oxaliplatin 0.8 mg/kg); 4). Mid-dose deuterium oxide+oxaliplatin group (5% glucose deuterium oxide solution, 20 ml/kg+oxaliplatin 0.8 mg/kg); 5). High-dose deuterium oxide+oxaliplatin group (5% glucose deuterium oxide solution, 40 ml/kg+oxaliplatin 0.8 mg/kg); 6). Low-dose deuterium oxide+oxaliplatin+mitomycin group (42±1° C. 5% glucose deuterium oxide solution, 5 ml/kg+oxaliplatin 0.8 mg/kg+mitomycin 0.4 mg/kg); 7). […]
The peritoneal cavity was lavaged with the 42±1° C. glucose deuterium oxide solution in combination with the above composition, which were retained for 10 min in the peritoneal cavity after being introduced, which was repeated for 3 times. […] 24 hours after the administration of drugs was completed (on day 11), 4 mice from each group were sacrificed, the volume of ascitic fluid was measured, and bodies of the mice were dissected to observe the peritoneal organs and metastasis to lung. […]

With `CC(=O)O[C@H]1C(=O)[C@@]2(C)[C@H]([C@H](OC(=O)c3ccccc3)[C@]3(O)C[C@H](OC(=O)[C@H](O)[C@@H](NC(=O)c4ccccc4)c4ccccc4)C(C)=C1C3(C)C)[C@]1(OC(C)=O)CO[C@@H]1C[C@@H]2O` [Paclitaxel, paclitaxel] the “Body weight (g) Initial” value ([1]; Paclitaxel 8 mg/kg × 11, tail vein) was 18.4 g, the “Bone marrow DNA content (OD)” value ([1]; Paclitaxel 8 mg/kg × 11, tail vein, control 0.950 ± 0.2711) was 0.841 ± 0.3014 OD and the “Tumor weight” value ([1]; Paclitaxel 8 mg/kg × 11, tail vein, control 2.92 ± 0.27) was 0.94 ± 0.25 g. The “Body weight (g) End, given as change” value ([1]; Paclitaxel 8 mg/kg × 11, tail vein, control +0.4) was -1.2 g, the “Body weight (g) Initial” value ([1]; Paclitaxel 8 mg/kg × 11, tail vein, listed as paclitaxel) was 18.4 ± 0.5 g and the “body weight at end” value ([1]; high-dose paclitaxel positive control) was 16.8 ± 0.9 g. The “Inhibition (%)” value ([1]; tumor weight, Paclitaxel 8 mg/kg × 11, tail vein) was 67.80%*, the “Tumor weight” value ([2]; control 3.22 ± 1.59) was 2.07 ± 1.06 g and the “Body weight (g) End, given as change” value ([2]; control +4.0) was “+2.8 g”. For the same molecule, the “Inhibition (%)” value ([2]; tumor weight) was 35.7%, the “Body weight (g) Initial” value [3] was 18.3 g and the “Bone marrow DNA content (OD)” value ([3]; control 0.931 ± 0.2011) was 0.881 ± 0.2502 OD. For the same molecule, the “Tumor weight” value ([3]; control 4.07 ± 0.76) was 1.59 ± 0.40 g, the “Body weight (g) End, given as change” value ([3]; control +3.3) was “+1.0 g” and the “Inhibition (%)” value ([3]; tumor weight) was 60.93%*. For the same molecule, the “Body weight (g) Initial” value [4] was 18.4 g, the “Tumor weight” value [4] was 0.94 ± 0.25 g and the “Tumor weight” value ([4]; listed as paclitaxel) was 0.94 ± 0.25 g. For the same molecule, the “Body weight (g) End, given as change” value ([4]; control +1.4) was “+0.9 g”, the “Inhibition (%)” value [4] was 67.97* % and the “Inhibition (%)” value ([4]; listed as paclitaxel) was 67.97%.
With `N.N.[Cl][Pt][Cl]` [cisplatin] the “T/C(%)” value ([5]; room temperature, i.p. lavage x 5) was 137.1%, the “MST” value ([5]; room temperature, i.p. lavage x 5, control 13.2 ± 1.9) was 18.1 ± 3.2 days and the “Ascitic fluid” value ([5]; day 11, RT, control 14.85 ± 2.56) was 7.30 ± 2.32 mL.
`S=P(N1CC1)(N1CC1)N1CC1` [Thiotepa, thiotepa] was tested, and the “Body weight (g) Initial” value [6] was 20.6 g, the “Tumor weight” value ([6]; control 2.87 ± 1.11) was 1.75 ± 1.06 g and the “Body weight (g) End, given as change” value ([6]; control +3.1) was “+2.6 g”. For the same molecule, the “Inhibition (%)” value [6] was 39.0% and the “Inhibition (%)” value ([6]; listed as thiotepa) was 39%.
With `O=C1[O][Pt]2([NH][C@@H]3CCCC[C@H]3[NH]2)[O]C1=O` [oxaliplatin] the “Ascitic fluid” value ([7]; day 11, control 16.5 ± 4.3) was 8.7 ± 1.9 mL, the “T/C(%)” value ([7]; i.p. lavage x 5) was 177.6% and the “MST” value ([7]; i.p. lavage x 5, control 12.2 ± 3.0) was 21.7 ± 2.8 days.
